{"source": "paper PMC9610999", "about": "“Itraconazole-Induced Increases in Gilteritinib Exposure Are Mediated by CYP3A and OATP1B” (Molecules, 2022)", "origin": "cited, not measured here", "settings": "human, in vivo; cited from earlier work", "data": [{"compound": "CCc1nc(C(N)=O)c(Nc2ccc(N3CCC(N4CCN(C)CC4)CC3)c(OC)c2)nc1NC1CCOCC1", "note": "[Gilteritinib]", "values": [{"measurement": "Increase in gilteritinib exposure when co-administered with itraconazole", "result": 2.2, "unit": "fold"}]}]}
